In patent US20080145375A1, “Vaccination” (Glaxo Group Limited, priority 2003, published 2008):

Assays:
[1] = test system: C56BI/6 mice immunised with p7313OVAcyt; experiment: ELISPOT after primary PMID immunisation with p7313OVAcyt; format: in vivo, mouse; settings: delivered singly with p7313 OVAcyt; Day 7 post primary immunisation; FIG. 8
Method: (§1) Plasmid DNA was precipitated onto 2 μm diameter gold beads using calcium chloride and spermidine. Equal amounts of plasmids encoding antigen (p7313OVAcyt, p7313RNG, pVAC7VNTRMuc1, pVAC7VNTRMuc1-PADRE or pVAC7VNTRMuc1-HepB) and p7313GMCSF plasmids were mixed and co-precipitated so that all beads were coated with a mixture of the 2 plasmids ensuring delivery of both plasmids to the same cell. Unless otherwise stated both the antigen and GMCSF were loaded at 0.5 ug/cartridge. Where lower doses of antigen were used the GMCSF loading remained at 0.5 ug and the total DNA on the cartridge was adjusted to 1 ug using p7313empty or pVACempty plasmids. Loaded beads were coated onto Tefzel tubing as described in, for example, Eisenbraum, et al. 1993. DNA Cell Biol. 12:791-797; Pertmer et al, 1996 J. Virol. 70:6119-6125). Particle bombardment was performed using the Accell gene delivery (PCT WO 95/19799; incorporated herein by reference). Female C56BI/6 mice were immunised with 2 administrations of plasmid at each time point as detailed in the results section, one on each side of the abdomen after shaving. […]
(§2) Cells were removed from the plates by washing once with water (with 1 minute soak to ensure lysis of cells) and three times with PBS. […] Spots were enumerated using an image analysis system devised by Brian Hayes, Asthma Cell Biology unit, GSK or the AID Elispot reader (Cadama Biomedical, UK). […]

[2] = test system: mice immunised with pVAC7VNTR muc1; experiment: Elispot of Muc1 CD4 responses after immunisation with pVAC7VNTR muc1; format: in vivo, mouse; settings: immunised days 0 and 21; day 7 post boost; compared to pVAC 7VNTRMuc1 alone; FIG. 12
Method: For OVA assays peptide SIINFEKL, a dominant CD8 peptide of OVA, was used in assays at a final concentration of 50 nM to measure CD8 responses and peptide […] was used at a final concentration of 10 μM to measure CD4 responses. For ICS assays Ovalbumin protein was also used to measure CD4 responses at 1 mg/ml. For ELISPOT to detect responses to p7313RNG peptide the CD8 peptide AMQMLKETI was used for stimulation. For detecting responses to Muc1, CD4 peptides […] and […] were used at 10 uM, and CD8 peptide SAPDNRPAL was used at 10 nM. The 9-mer peptides used to follow CD8 responses to Gag and RT in mice were […] (Gag CD8) and YYPDSKDLI (RT CD8) respectively, and CD4 responses to Gag and RT were followed using […] (Gag CD4) and […] (RT CD4) respectively. Peptide […] (Nef 218) was also tested. These peptides were tested at a final concentration of 10 μM. The peptides were obtained from Genemed Synthesis, South San Francisco.
Experiments were carried out to determine the effect of GMCSF and Imiquimod treatment on responses to pVAC7VNTR Muc1. Mice were immunised at days 0 and 21 with pVAC7VNTR muc1. This was delivered alone, co-delivered with p7313GMCSF, or with p7313GMCSF and Imiquimod application at 24 hours post immunisation. Spleens were harvested at day 7 post boost and analysed by Elispot following overnight stimulation with Muc1 CD4 peptides.

RIP OVAlo mice = experiment: Breaking tolerance in RIP OVAlo mice; format: in vivo, mouse; settings: four immunisations at 3 weeks intervals; SIINFEKL restimulation
Description: RIP OVAlo mice were used to test the potential for tolerance breaking of the GMCSF+Imiquimod combination (FIG. 20). RIP OVAlo mice express ovalbumin (OVA) on the insulin producing beta cells of the pancreas and are therefore tolerant to this molecule. Disruption of this tolerance results in autoimmune destruction of the beta cells leading to diabetes which can be easily monitored by measurement of glycosuria and blood glucose level. RIPova lo and C57/BL6 mice (wt control group) received four immunisations with empty vector or OVAcyt (using PMID), ±GM-CSF (using PMID), and ±Imiquimod. Immunisations were given at 3 weeks intervals. Imiquimod was applied topically on the site of immunisation 24 h after PMID. 7 Days after the last immunisation splenocytes and serum samples were taken. […] The functional test for tolerance breaking in this model is development of diabetes. This is measured by urine glucose levels.

[3] = test system: mice immunised with p731-RNG (GW825780X); experiment: IFNγ Elispot after PMID immunisation with p731-RNG, imiquimod at 0 h or 24 h; format: in vivo, mouse; settings: application 24 h post immunisation; 2×0.5 ug p731-RNG by PMID; spleens day 14; GAG CD8 peptide AMQMLKETI; FIG. 5
Method: as §1, with “reference).” for “reference). Female C56BI/6 mice were immunised with 2 administrations of plasmid at each time point as detailed in the results section, one on each side of the abdomen after shaving.”
as §2
Spleens were harvested at day 14 post immunisation and the cellular responses analysed by IFNγ Elispot following stimulation with a GAG balb/c CD8 9mer peptide: AMQMLKETI.

[4] = test system: C57/bl6 mice immunised with OVAcyt; experiment: In vivo cytotoxicity assay (SIINFEKL pulsed CSFE labelled splenocytes); design: species or system mouse; settings: 3 mice per group; Day 7, 14, 21 and 42 post immunisation; FIG. 18
Method: The effect of GMCSF and Imiquimod on cytotoxic responses to p7313OVA after primary immunisation was also measured by in vivo cytotoxicity assays (FIG. 18). C57/bl6 mice were immunised with either OVAcyt or OVAcyt+GMCSF by PMID. At 24 hours post immunisation imiquimod was applied on the immunisation site. At Day 7, 14, 21 and 42 post immunisation mice were injected i.v. with CSFE labelled splenocytes consisting of [sequence] peptide pulsed and unpulsed in equal numbers. After 2 hours the blood was analysed by flow cytometry and the ratio of pulsed to unpulsed cells remaining was calculated to give a numerical value of cytotoxicity.

[5] = test system: TLRs 1-9 mRNA in monocyte derived DC; experiment: Taqman analysis of TLR expression on IFNγ treated DC; format: cell-based, human; settings: DC treated with IFNγ for 24 hours; 3 healthy donors; FIG. 6
Method: Monocytes were isolated from the PBMC of 3 healthy donors and cultured with IL-4 & GM-CSF for 7 days to induce differentiation to immature DC. The DC were then treated with IFNγ for 24 hours. mRNA expression of TLRs 1-9 was then measured by Taqman. In contrast to published reports we have shown that low levels of TLR7 are constitutively expressed on monocyte derived DC. […] The increase in TLR7 expression at 24 hours post stimulation in vitro provides an explanation for the results in FIG. 5 showing the good effect of Imiquimod at 24 hours post immunisation.

GMCSF
adjuvant effect in Elispot assays [1]: adjuvant effects
Muc1 CD4 responses (Elispot) [2]: improved CD4 responses
CD8 responses (IFNγ and IL2 production in CD8+ T cells) (RIP OVAlo mice): there are responses

CC(C)Cn1cnc2c(N)nc3ccccc3c21 [Imiquimod, imiquimod]
adjuvant effect on cellular responses, IFNγ Elispot [3]: good adjuvant effect
adjuvant effect in Elispot assays [1]: adjuvant effects
Muc1 CD4 responses (Elispot) [2]: improved CD4 responses
in vivo cytotoxicity [4]: clear benefit over OVA alone
CD8 responses (IFNγ and IL2 production in CD8+ T cells) (RIP OVAlo mice): there are responses

IFNγ: interferon-gamma used to treat monocyte derived DC for 24 hours
mRNA expression of TLR2 [5]: upregulated but to a lesser extent
mRNA expression of TLR7 and TLR8 [5]: expression of TLR8 and increased levels of expression of TLR7 were found in all 3 donors
